The test system of assay [1] is sexually mature female zebrafish. In words: In vivo effect of NKBs in zebrafish: LH secretion after intraperitoneal injection. As to conditions: single intraperitoneal injection; for LH secretion: 20 pmol/g body weight, sexually mature female zebrafish. How it is done:
In vivo studies involved administering NKBa, NKBb or NKF and the analogues thereof, denoted by SEQ ID NO. 40-42 and 44-46, respectively to immature fish (20 fish/treatment). The circulating levels of E2, 11KT, LH and FSH were determined prior to hormonal manipulations, in order to confirm that these fish were indeed sexually immature. The fish were injected intramuscularly (i.m.) or intraperitonealy (i.p.) at various doses. Adult female zebra fish were injected intraperitoneally with 20 pmol/g body weight. Control fish were injected with saline. Plasma samples were collected at time 0, and specific times after the administration of the peptide/s, to determine the levels of E2, 11KT, LH and FSH.
To further characterize the role of the NKB/NKBR system in fish reproduction the in vivo biological function of zebrafish NKB peptides was next examined.

The test system of assay [2] is zfTac3rb. In words: Receptor transactivation assay, CRE-Luc reporter (PKA activation), COS-7 cells expressing zfTac3rb. Format: cell-based, zebrafish. As to conditions: mean ± SEM. The essentials:
(§1)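 COS-7 cells were cotransfected with zebrafish tac3ra or tac3rb (or human NK3R), an SRE-Luc (PKC) or CRE-Luc (PKA) reporter and β-galactosidase. After 36 h serum starvation, cells were stimulated with vehicle or various concentrations of human or zebrafish NKBs or analogs for 6 h. Luciferase was normalized to β-galactosidase; triplicates, three independent sets.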

The test system of the next assay is NK-2. Particulars: GPI; cited from earlier work.
Assay [3] relates to zfTac3rb. Put plainly: Receptor transactivation assay, SRE-Luc reporter (PKC activation), COS-7 cells expressing zfTac3rb. Format: cell-based, zebrafish. As to conditions: mean ± SEM. The essentials: as §1
In assay [4] the test system is zfTac3ra. Put plainly: Receptor transactivation assay, CRE-Luc reporter (PKA activation), COS-7 cells expressing zfTac3ra. Format: cell-based, zebrafish. As to conditions: mean ± SEM. The procedure, abridged: as §1
Assay [5] has as its system zfTac3ra. In words: Receptor transactivation assay, SRE-Luc reporter (PKC activation), COS-7 cells expressing zfTac3ra. Format: cell-based, zebrafish. Particulars: mean ± SEM. The essentials:
as §1

The subject of another assay is Juvenile Tilapia. In words: Gonadotropin release in vivo from juvenile tilapia (plasma LH and FSH by ELISA). Also noted: species or system Tilapia (Oreochromis niloticus). How it is done: Tilapia females (two-months old) were injected with the NKBa analogue denoted by SEQ ID NO.44 or the NKF analogue denoted by SEQ ID NO.46 at 0.5 or 5 μg/kg body weight (BW). Blood was withdrawn from the caudal vein and plasma Luteinizing hormone (LH) and Follicle-stimulating hormone (FSH) levels were measured using a homologous sensitive enzyme-linked immunosorbent assay (ELISA), as described by Aizen et al. 2007 [33].
(In general: In an ELISA, binding on a coated surface is turned into a signal by an enzyme label.)

Another assay has as its system Mature female carp. In words: Gonadotropin release from mature carp in vivo (LH by ELISA). How it is done: Mature female carp, just before spawning, were injected with NKBa, NKBb and NKF analogues, denoted by SEQ ID NO.44, SEQ ID NO.45 and SEQ ID NO.46, respectively (20 μg/kg body weight). LH levels was measured by specific ELISA, according to Aizen et al. 2012 [33].

Another assay concerns Tilapia pituitary cells. In words: Gonadotropin release from tilapia pituitary dispersed cells. Particulars: 10 nM, 4 hr. Format: cell-based. The method, then:
Tilapia pituitary cells were subjected to enzymatic dispersion. Pituitary cells were stimulated with 10 nM of the NKBa or NKF analogue, denoted by SEQ ID NO.44 and SEQ ID NO.46, respectively, for 4 hr, when the medium was collected. […] Stimulation of tilapia pituitary cells with GnRH at [10 nM] was used as a control.

Assay [6] concerns the target T1, huNK3R (Homo sapiens, UniProt P29371).
T1 construct: host or cells: COS-7
T1 sequence (P29371 1-465): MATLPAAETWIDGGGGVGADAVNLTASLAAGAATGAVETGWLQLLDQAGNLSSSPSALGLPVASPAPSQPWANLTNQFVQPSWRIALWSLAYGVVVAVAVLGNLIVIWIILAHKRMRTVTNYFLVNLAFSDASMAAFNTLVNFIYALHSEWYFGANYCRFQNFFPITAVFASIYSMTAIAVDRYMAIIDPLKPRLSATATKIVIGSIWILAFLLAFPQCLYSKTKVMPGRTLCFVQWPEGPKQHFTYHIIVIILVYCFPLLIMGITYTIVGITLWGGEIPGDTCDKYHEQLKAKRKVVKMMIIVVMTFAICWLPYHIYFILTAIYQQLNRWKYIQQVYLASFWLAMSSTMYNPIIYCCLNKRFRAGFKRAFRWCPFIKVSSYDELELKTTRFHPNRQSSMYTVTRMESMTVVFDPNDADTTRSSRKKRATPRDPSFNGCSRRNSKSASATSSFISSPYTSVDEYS
In words: Receptor transactivation assay, CRE-Luc reporter (PKA activation), COS-7 cells expressing human NK3R. Format: cell-based. As to conditions: Table 5, CRE-Luc follows PKA activation, mean ± SEM.
Method: In order to study the signaling pathways of the novel zebrafish NKBs, the entire coding regions of zftac3ra (denoted by SEQ ID NO:6) or zftac3rb (denoted by SEQ ID NO:7), or the cDNA clone for human NK3R (obtained from the Missouri S&T cDNA Resource Center, were inserted into pcDNA3.1 (Invitrogen). The luciferase assay was conducted according to Biran et al., 2008 [4] COS-7 cells were grown in DMEM supplemented with 10% FBS, 1% glutamine, 100 U/ml penicillin, and 100 mg/ml streptomycin (Biological Industries) under 5% CO2 until confluent. Cotransfection of either pc-zftac3ra, pc-zftac3rb or pc-Htac3r (at 3 μg/plate), a reporter plasmid (at 2 μg/plate), and pCMV-β-galactosidase (at 1 μg/plate) was carried out with FuGENE 6.0 reagent (Roche). The cells were serum starved for 36 h, stimulated with vehicle or various concentrations of either human (Sigma) or zebrafish NKBs for 6 h, and then harvested and analyzed. Lysates prepared from the harvested cells were assayed for both luciferase activity and β-galactosidase activity, which was used as an internal standard to normalize the luciferase activity directed by the test plasmid. […]
The response, binding selectivity and signal transduction pathways of the novel tachykinin receptors to their agonists were evaluated by functional expression analysis, using COS-7 cells. […]

Assay [7] deals with T1, huNK3R. Put plainly: Receptor transactivation assay, SRE-Luc reporter (PKC activation), COS-7 cells expressing human NK3R. Format: cell-based.
Method: In order to study the signaling pathways of the novel zebrafish NKBs, the entire coding regions of zftac3ra (denoted by SEQ ID NO:6) or zftac3rb (denoted by SEQ ID NO:7), or the cDNA clone for human NK3R (obtained from the Missouri S&T cDNA Resource Center, were inserted into pcDNA3.1 (Invitrogen). The luciferase assay was conducted according to Biran et al., 2008 [4] COS-7 cells were grown in DMEM supplemented with 10% FBS, 1% glutamine, 100 U/ml penicillin, and 100 mg/ml streptomycin (Biological Industries) under 5% CO2 until confluent. Cotransfection of either pc-zftac3ra, pc-zftac3rb or pc-Htac3r (at 3 μg/plate), a reporter plasmid (at 2 μg/plate), and pCMV-β-galactosidase (at 1 μg/plate) was carried out with FuGENE 6.0 reagent (Roche). The cells were serum starved for 36 h, stimulated with vehicle or various concentrations of either human (Sigma) or zebrafish NKBs for 6 h, and then harvested and analyzed. Lysates prepared from the harvested cells were assayed for both luciferase activity and β-galactosidase activity, which was used as an internal standard to normalize the luciferase activity directed by the test plasmid. Transfection experiments were performed in triplicate with three independently isolated sets.
To validate the specificity of the serum-responsive element (SRE)-Luc and cAMP-responsive element (CRE)-Luc reporter systems, specific activators for PLC/PKC and AC/PKA signaling pathways were used in control experiments.
The subject of assay [8] is NKB receptors (human NKBR, zebrafish Tac3ra, Tac3rb). Put plainly: Receptor transactivation assay, statements in words across SRE-Luc and CRE-Luc reporters and receptors. Particulars: both zebrafish tac3 receptors, in both signal transduction systems. Format: cell-based. The method, then:
(§2) In order to study the signaling pathways of the novel zebrafish NKBs, the entire coding regions of zftac3ra (denoted by SEQ ID NO:6) or zftac3rb (denoted by SEQ ID NO:7), or the cDNA clone for human NK3R (obtained from the Missouri S&T cDNA Resource Center, were inserted into pcDNA3.1 (Invitrogen). The luciferase assay was conducted according to Biran et al., 2008 [4] COS-7 cells were grown in DMEM supplemented with 10% FBS, 1% glutamine, 100 U/ml penicillin, and […] streptomycin (Biological Industries) under 5% CO2 until confluent. Cotransfection of either pc-zftac3ra, pc-zftac3rb or pc-Htac3r (at 3 μg/plate), a reporter plasmid (at 2 μg/plate), and pCMV-β-galactosidase (at 1 μg/plate) was carried out with FuGENE 6.0 reagent (Roche). The cells were serum starved for 36 h, stimulated with vehicle or various concentrations of either human (Sigma) or zebrafish NKBs for 6 h, and then harvested and analyzed. Lysates prepared from the harvested cells were assayed for both luciferase activity and β-galactosidase activity, which was used as an internal standard to normalize the luciferase activity directed by the test plasmid. Transfection experiments were performed in triplicate with three independently isolated sets. Protein structure prediction of zebrafish NKBa, NKBb or NKF were performed on I-Tasser servers.
(§3) The response, binding selectivity and signal transduction pathways of the novel tachykinin receptors to their agonists were evaluated by functional expression analysis, using COS-7 cells.
(§4) Thus, the ability of the three novel piscine peptides (namely, NKBa, NKBb and NKF, denoted by SEQ ID NO.40, 41 and 42), as well as the ability of the three analogous agonistic peptides, namely, NKBa-analog, NKBb-analog and NKF-analog, to differentially activate the different tac3 receptors, using SRE as a reporter gene that follows PKC activation and CRE as a reporter gene for the PKA pathway, was tested. Human NK3R (human NKB receptor) and human NKB served as controls.

Assay [9] addresses T2, NKB receptors (human NKBR, zebrafish Tac3ra, Tac3rb) (Homo sapiens, UniProt P29371).
T2 construct: expressed in transfected cells; host or cells: COS-7
T2 sequence (P29371 1-465): T1 sequence (P29371 1-465)
The description is as above. As to conditions: human NKBR (huNK3R), in both signal transduction systems (SRE-Luc and CRE-Luc). Format: cell-based. How it is done: as §2, §3, §4

[10] abbreviates: Table 5, COS-7 cells, CRE-Luc follows PKA activation, read-out: EC50 CRE-Luc zfTac3rb.
Setting [11] is: Table 6 (native peptides and analogues), PKA activation, read-out: EC50 using CRE-Luc, zfTac3rb.
The mark [12] stands for this setting: Table 5, COS-7 cells, SRE-Luc follows PKC activation, read-out: EC50 SRE-Luc zfTac3rb.
Where [13] appears, read: Table 7 (native peptides and analogues), PKC activation, read-out: EC50 using SRE, zfTac3rb.
[14] abbreviates: Table 5, COS-7 cells, CRE-Luc follows PKA activation, read-out: EC50 CRE-Luc zfTac3ra.
The mark [15] stands for this setting: Table 6 (native peptides and analogues), PKA activation, read-out: EC50 using CRE-Luc, zfTac3ra.
Where [16] appears, read: Table 5, COS-7 cells, SRE-Luc follows PKC activation, read-out: EC50 SRE-Luc zfTac3ra.
Setting [17] is: Table 7 (native peptides and analogues), PKC activation, read-out: EC50 using SRE, zfTac3ra.
Setting [18] is: Juvenile Tilapia, injected at 0.5 or 5 μg/Kg BW.
[19] abbreviates: tilapia females two-months old, injected 5 μg/kg BW, listed as NKF analogue.

Each structure is given as a SMILES string. “Also recorded” adds a separate entry of the source. *1 amine or outer side, *2 acyl side, *3 side chain or, on linkers, in order; H or OH if unused. Where a SMILES comes first, the peptide text is derived from it. [ ]: non-standard residue; d: D form. NMeF = CN[C@@H](Cc1ccccc1)C(=O)O; Suc = O=C(CCC(=O)[*:2])[*:1]

The source of these data is patent US20150072933A1, “NOVEL SEQUENCES FOR THE CONTROL OF REPRODUCTION IN FISH” (Yissum Research Development Company of the Hebrew …, priority 2011, published 2015).

For the molecule `CSCC[C@H](NC(=O)[C@H](CC(C)C)NC(=O)CNC(=O)[C@H](Cc1ccccc1)N(C)C(=O)[C@H](Cc1ccccc1)NC(=O)[C@H](CC(=O)O)NC(=O)CCC(=O)O)C(N)=O` [Senktide, Succ-Asp-Phe-N(Me)Phe-Gly-Leu-Met-NH2, reference compound] (Suc-DF[NMeF]GLM-NH2), in assay [1], the LH secretion entry is “less pronounced”. In addition, the concentration giving a half-maximal response (EC50) in the assay on zfTac3rb [2] (setting [10]) is 20.1 ± 15.1 nM; with zfTac3rb [2] (setting [11]) it was 20.1 ± 15.1 nM; in the assay on NK-2, over 200000 nM; with zfTac3rb [3] (setting [12]) it was 2.72 ± 1.54 nM; in the assay with zfTac3rb [3] (setting [13]), 2.72 ± 1.54 nM; with zfTac3ra [4] (setting [14]) it was 49 ± 14.9 nM. Further, the EC50 in the assay with zfTac3ra [4] (setting [15]) was found to be 49 ± 14.9 nM; in the assay with zfTac3ra [5] (setting [16]) it was 2.67 ± 1.44 nM; with zfTac3ra [5] (setting [17]) it was 2.68 ± 1.44 nM.
Turning to `CSCC[C@H](NC(=O)[C@H](CC(C)C)NC(=O)CNC(=O)[C@H](C(C)C)N(C)C(=O)[C@H](Cc1ccccc1)NC(=O)[C@H](CO)NC(=O)[C@H](CC(=O)O)NC(=O)CCC(=O)O)C(N)=O` [zfNKF-analog, Succ-Asp-Ser-Phe-N(Me)Val-Gly-Leu-Met-NH2], the FSH secretion result with Juvenile Tilapia (setting [18]) is listed as “significant increase”. Also, the LH secretion entry with Juvenile Tilapia (setting [18]) is given as “significant increase”. The “plasma FSH level” value in the assay with Juvenile Tilapia (setting [19]) is reported as “significant increase; also recorded: increased significantly”. In addition, the “plasma LH level” value in the assay on Juvenile Tilapia (setting [19]) is recorded as “significant increase”. In addition, the EC50 was found to be 7.75 nM with zfTac3rb [2] (setting [11]), 0.54 ± 0.39 nM with zfTac3rb [3] (setting [13]), 9.14 ± 1.27 nM in the assay with zfTac3ra [4] (setting [15]) and 0.31 nM with zfTac3ra [5] (setting [17]). The LH level entry in the assay with Mature female carp (mature female carp just before spawning, injected 20 μg/kg body weight, listed as NKF analogue) was “significant elevation; also recorded: increased the level of LH significantly”. For the same molecule, the “persistence of the LH effect” value in the assay with Mature female carp (mature female carp, 20 μg/kg body weight, throughout the experiment) is listed as “remained constant throughout the experiment”. In the assay on Tilapia pituitary cells, the “release of FSH from tilapia pituitary cells” value was “significantly increased”.
Consider `CC[C@H](C)[C@H](NC(=O)[C@H](CC(=O)O)NC(=O)[C@H](CC(N)=O)NC(=O)[C@@H](N)Cc1ccc(O)cc1)C(=O)N[C@@H](CC(=O)O)C(=O)N[C@@H](Cc1ccc(O)cc1)C(=O)N[C@@H](CC(=O)O)C(=O)N[C@@H](CO)C(=O)N[C@@H](Cc1ccccc1)C(=O)N[C@H](C(=O)NCC(=O)N[C@@H](CC(C)C)C(=O)N[C@@H](CCSC)C(N)=O)C(C)C` [zfNKF] (H-YNDIDYDSFVGLM-NH2), for which the LH secretion entry in assay [1] is reported as “significant increase; also recorded: significant LH secretion”. Besides, in assay [1] (compared with GnRH), the “magnitude of the induced LH discharge” value is reported as “comparable with that observed in response to GnRH”. The EC50 in the assay on zfTac3rb [2] (setting [10]) worked out at 1.8 ± 1.55 nM; in the assay on zfTac3rb [2] (setting [11]), 1.8 nM; on huNK3R [6], 4.36 ± 1.25 nM; at huNK3R [7] (Table 5, COS-7 cells, SRE-Luc follows PKC activation, mean ± SEM), 0.52 ± 0.18 nM; in the assay with zfTac3rb [3] (setting [12]), 0.36 ± 0.16 nM; in the assay on zfTac3rb [3] (setting [13]), 0.37 ± 0.16 nM. The EC50 in the assay on zfTac3ra [4] (setting [14]) amounted to 4.94 ± 1.83 nM; with zfTac3ra [4] (setting [15]) it was 4.94 ± 1.83 nM; in the assay on zfTac3ra [5] (setting [16]), 0.54 ± 0.13 nM; in the assay on zfTac3ra [5] (setting [17]), 0.55 nM. For the same molecule, the “SRE-driven luciferase activity, response” value at huNK3R [7] (COS-7 cells transiently transfected with human NK3R) is on record as “elicited an increased response”. Moreover, the figures for the “potency” value in [8] and in assay [9] were “most potent among all tachykinins examined” and “high potency”, respectively.

The term EC50 denotes the midpoint of the concentration-response curve.
